The numbers were not newly measured in publication PMC3629230, “Permeability Enhancers Dramatically Increase Zanamivir Absolute Bioavailability in Rats: Implications for an Orally Bioavailable Influenza Treatment” (PLoS ONE, 2013), which cites them from elsewhere.

The test system of one data set is flu strains. As to conditions: cited from earlier work.
A further data set relates to seasonal H1N1. Also on record: method as in earlier work. The following applies: 2009 tests; cited from earlier work.
In a further data set the test system is pandemic flu strains. On the set-up: method as in earlier work. As to conditions: 2009 tests; cited from earlier work.

In the case of `CC(=O)N[C@H]1[C@H]([C@H](O)[C@H](O)CO)OC(C(=O)O)=C[C@@H]1N=C(N)N` [Zanamivir, zanamivir], the Resistance result in the data set on flu strains is listed as “has not been observed”.
In the case of `CCOC(=O)C1=C[C@@H](OC(CC)CC)[C@H](NC(C)=O)[C@@H](N)C1` [oseltamivir], the Strains resistant is 99.6% in the data set on seasonal H1N1 and 0.5% in the data set on pandemic flu strains.
